Test results: paper PMC7577125 (Antimicrobial Agents and Chemotherapy, 2020)
Like-named read-outs stand apart in the source and are kept apart here.

Tests used:
[1] = test system: HBV (genotype D, subtype ayw); experiment: HBV replication assay in HepAD38 cells; format: cell-based, Hepatitis B virus
HBV [2] = experiment: HBV infection of HepG2-NTCP cells; format: cell-based; details: Hepatitis B virus
HBV [3] = experiment: HBV infection of primary human hepatocytes (PHHs); format: cell-based; details: Hepatitis B virus, Hepatocyte, PHH
HBV [4] = experiment: De novo infection models (HepG2-NTCP and PHH), summary; format: cell-based, Hepatitis B virus; details: HepG2-NTCP and PHH cells, tested at up to 100 nM
HBV cccDNA [5] = experiment: cccDNA formation assay in infected HepG2-NTCP cells (Southern blot); format: cell-based; details: Hepatitis B virus, 96 h, 1.00 μM, 4 days, read-out: cccDNA % of Control
HBV cccDNA [6] = experiment: cccDNA formation assay in infected PHH cells (Southern blot); format: cell-based; details: Hepatitis B virus, 96 h, 0.10 μM, 4 days, read-out: cccDNA % of Control
HBV capsid DNA [7] = experiment: Incoming capsid assay in HepG2-NTCP cells; format: cell-based; details: Hepatitis B virus, 1.00 μM, 3 h, read-out: Capsid DNA % of Control
HBV capsid DNA [8] = experiment: Incoming capsid assay in PHH cells; format: cell-based; details: Hepatitis B virus, 0.10 μM, 3 h, read-out: Capsid DNA % of Control
HBV [9] = experiment: Extracellular HBV DNA and pgRNA in HepAD38 cells (qPCR, RT-qPCR); format: cell-based, Hepatitis B virus
From the text: For HBV RNA Northern blot analysis, total cellular RNA or encapsidated pgRNA samples were resolved in a 1.5% agarose gel containing 2.2 M formaldehyde and transferred onto a Hybond-XL membrane (GE Healthcare). For DNA Southern blot analysis, HBV core DNA or cccDNA samples were resolved by electrophoresis in a 1.2% agarose gel and blotted onto a Hybond-XL membrane. Membranes were probed with either an [α-^32P]UTP (3,000 Ci/mmol; PerkinElmer)-labeled plus-strand-specific (for Northern blot hybridization) or minus-strand-specific (for Southern blot hybridization) HBV riboprobe and exposed to a phosphorimager screen. Extracellular HBV DNA and RNA were copurified from the culture medium of induced HepAD38 cells by using a MinElute virus vacuum kit (Qiagen). Viral DNA was quantified using the above-mentioned qPCR method directly, and HBV RNA was detected by RT-qPCR with the same core region primer/probe set after the removal of DNA contamination by DNase I (Thermo Fisher) treatment.

HBV genotype A = experiment: microbe, parasite or virus in culture; format: cell-based; details: Hepatitis B virus, read-out: Mean antiviral EC50
HBV genotype B = experiment: microbe, parasite or virus in culture; format: cell-based; details: Hepatitis B virus, read-out: Mean antiviral EC50
HBV genotype C = experiment: microbe, parasite or virus in culture; format: cell-based; details: Hepatitis B virus, read-out: Mean antiviral EC50
HBV genotype D = experiment: microbe, parasite or virus in culture; format: cell-based; details: Hepatitis B virus, read-out: Mean antiviral EC50
[10] = test system: HBV genotypes A, B, C, and D; experiment: microbe, parasite or virus in culture; format: cell-based; details: Hepatitis B virus, read-out: VR EC50s
[11] = test system: NrtI^R HBV (rtL180M/M204V); experiment: microbe, parasite or virus in culture; format: cell-based, Hepatitis B virus; details: Hepatitis B virus
HBV Cp Wild type = experiment: microbe, parasite or virus in culture; format: cell-based, Hepatitis B virus; details: Hepatitis B virus, Huh-7, read-out: Mean EC50
HBV Cp P25A = experiment: microbe, parasite or virus in culture; format: cell-based, Hepatitis B virus; details: Hepatitis B virus, Huh-7, read-out: Mean EC50
HBV Cp D29G = experiment: microbe, parasite or virus in culture; format: cell-based, Hepatitis B virus; details: Hepatitis B virus, Huh-7, read-out: Mean EC50
HBV Cp T33N = experiment: microbe, parasite or virus in culture; format: cell-based, Hepatitis B virus; details: Hepatitis B virus, Huh-7, read-out: Mean EC50
HBV Cp Y38C = experiment: microbe, parasite or virus in culture; format: cell-based, Hepatitis B virus; details: Hepatitis B virus, Huh-7, read-out: Mean EC50
HBV Cp Y38F = experiment: microbe, parasite or virus in culture; format: cell-based, Hepatitis B virus; details: Hepatitis B virus, Huh-7, read-out: Mean EC50
HBV Cp I105L = experiment: microbe, parasite or virus in culture; format: cell-based, Hepatitis B virus; details: Hepatitis B virus, Huh-7, read-out: Mean EC50
HBV Cp I105T = experiment: microbe, parasite or virus in culture; format: cell-based, Hepatitis B virus; details: Hepatitis B virus, Huh-7, read-out: Mean EC50
HBV Cp T109I = experiment: microbe, parasite or virus in culture; format: cell-based, Hepatitis B virus; details: Hepatitis B virus, Huh-7, read-out: Mean EC50
HBV Cp T109M = experiment: microbe, parasite or virus in culture; format: cell-based, Hepatitis B virus; details: Hepatitis B virus, Huh-7, read-out: Mean EC50
HBV Cp Y118F = experiment: microbe, parasite or virus in culture; format: cell-based, Hepatitis B virus; details: Hepatitis B virus, Huh-7, read-out: Mean EC50
HBV [12] = experiment: Dose response of ETV and ABI-H0731 alone and in combination in induced HepAD38 cells; format: cell-based, Hepatitis B virus; details: 100× VR EC50 of ETV
Protocol: Viral replication was evaluated by quantifying the levels of total HBV DNA in the cells by qPCR. […] In both cases, the data are plotted as a function of each drug’s concentration relative to its VR EC50.

[13] = total intracellular viral DNA, read-out: Mean EC50, viral DNA
[14] = HepAD38, concn ETV 0.01, ABI-H0731 2.0, GLS4 0.5, NVR 3-778 2.5, AT-130 0.8, VRD-32 0.8 μM

Structure (SMILES): C=C1[C@H](CO)[C@@H](O)C[C@@H]1n1cnc2c(=O)[nH]c(N)nc21 [ETV, entecavir]
- EC50 ([1]; HepAD38, concomitantly determined with HepG2-NrtI^R, read-out: Mean EC50): 0.58 ± 0.15 nM
- EC50 ([1]; Hepatitis B virus, HePAD38, HepAD38, concomitantly determined with HepG2-NrtI^R, read-out: Mean EC50): 0.6 nM
- EC50 ([1]; Hepatitis B virus, HePAD38, HepAD38, total intracellular viral DNA, read-out: Mean EC50, viral DNA): 1.2 ± 0.3 nM
- EC50 ([1]; Hepatitis B virus, HePAD38, comparison value of Figure S4 legend, read-out: EC50 against a wild-type strain): 1 nM
- EC50 (HBV [2]; read-out: Mean EC50, HBeAg): > 100 nM
- EC50 (HBV [2]; read-out: Mean EC50, HBsAg): > 100 nM
- EC50 (HBV [2]; read-out: Mean EC50, pgRNA): > 100 nM
- EC50 (HBV [2]; [13]): 0.8 nM
- EC50 (HBV [3]; read-out: Mean EC50, HBeAg): > 100 nM
- EC50 (HBV [3]; read-out: Mean EC50, HBsAg): > 100 nM
- EC50 (HBV [3]; read-out: Mean EC50, pgRNA): > 100 nM
- EC50 (HBV [3]; [13]): < 0.1 nM
- inhibition of viral antigen production (HBV [4]): weak and incomplete inhibition
- activity at 1 µM (HBV cccDNA [5]): 85%
- activity at 0.1 µM (HBV cccDNA [6]): 88%
- activity at 1 µM (HBV capsid DNA [7]): 90%
- activity at 0.1 µM (HBV capsid DNA [8]): 86%
- secreted HBV DNA levels reduced by (HBV [9]; HepAD38, ETV 0.01 μM): 80%
- Extracellular DNA content (% of DMSO control) (HBV [9]; [14]): 19.5 % of DMSO control
- Extracellular pgRNA content (% of DMSO control) (HBV [9]; [14]): 170 % of DMSO control
- EC50 (HBV genotype A): 1.9 ± 0.5 nM
- EC50 (HBV genotype B): 2.3 ± 0.5 nM
- EC50 (HBV genotype C): 1.2 ± 0.1 nM
- EC50 (HBV genotype D): 5 ± 1.9 nM
- EC50 [10]: 1.2 to 5 nM
- EC50 ([11]; 96 h, read-out: Mean EC50): 7.1 ± 1.2 nM
- EC50 ([11]; 168 h, read-out: EC50 by Southern blot of intracellular viral core DNA): ~10 nM
- EC50 (HBV Cp Wild type): 1.9 ± 0.9 nM
- EC50 (HBV Cp P25A): 2.9 ± 0.3 nM
- EC50 (HBV Cp D29G): 0.6 ± 0.1 nM
- EC50 (HBV Cp T33N): 3.5 ± 1.6 nM
- EC50 (HBV Cp Y38C): 1.1 ± 0.5 nM
- EC50 (HBV Cp Y38F): 4.6 ± 0.6 nM
- EC50 (HBV Cp I105L): 0.4 ± 0.2 nM
- EC50 (HBV Cp I105T): 0.5 ± 0.3 nM
- EC50 (HBV Cp T109I): 1.9 ± 0.6 nM
- EC50 (HBV Cp T109M): 1.5 ± 0.3 nM
- EC50 (HBV Cp Y118F): 1.5 ± 0.9 nM
- reduction of HBV DNA levels (HBV [12]): ~1 log
- HBV DNA levels (HBV [12]; control 2.2 × 10^6): 1.3 × 10^5 copies/μl
